Source: paper PMC13589290, “Plasmodium falciparum HSP90 inhibitors show divergent resistance despite a shared ATP-binding site” (Cell reports, 2026)

Key:
HSC82 [1] = molecular target: T1, HSC82 (Saccharomyces cerevisiae, UniProt P15108, A41S); assay: fluorescence polarization competition with GA-FITC on purified protein; assay type: binding
T1 construct: N-terminal domain, C-terminal hexahistidine tag

HSC82 [2] = molecular target: T2, HSC82 (Saccharomyces cerevisiae, UniProt P15108); assay: as above; assay type: binding
T2 construct: N-terminal domain, C-terminal hexahistidine tag

SMILES | fluorescence polarization competition with GA-FITC on purified protein (HSC82 [1]) | fluorescence polarization competition with GA-FITC on purified protein (HSC82 [2])
CCNC(=O)c1noc(-c2cc(C(C)C)c(O)cc2O)c1-c1ccc(CN2CCOCC2)cc1 [AUY-922] | A41S reduced AUY-922 binding affinity in yeast HSC82, as evidenced by a rightward shift in the competition curve | A41S reduced AUY-922 binding affinity in yeast HSC82, as evidenced by a rightward shift in the competition curve
COC1=C2C[C@@H](C)C[C@H](OC)[C@H](O)[C@@H](C)/C=C(\C)[C@H](OC(N)=O)[C@@H](OC)/C=C\C=C(/C)C(=O)NC(=CC1=O)C2=O [Geldanamycin] | GA binding was unaffected by the A41S substitution in yeast HSC82 | GA binding was unaffected by the A41S substitution in yeast HSC82
